Earlier results as cited in EP3466870B1, “SURFACE-MODIFIED SODIUM HYPOCHLORITE PENTAHYDRATE CRYSTAL, AND METHOD FOR PRODUCING SAME” (Nippon Light Metal Company, Ltd., priority 2016, dated 2017).
Read-outs that look alike come from different tables or passages of the source.

Settings: in water at 25°C

Row | SMILES | pKa (first value listed) | pKa (second value listed)
1 | O=C(O)O [carbonic acid] | 6.11 | 9.87
2 | O=C(O)C(=O)O [oxalic acid] | 1.04 | 3.82
